In patent publication US4211773A, “5-Substituted 1-(2'-Deoxy-2'-substituted-β-D-arabinofuranosyl)pyrimidine nucleosides” (Sloan Kettering Institute for Cancer Research, priority 1978, dated 1980):
In brackets after ≈: the same amount, converted by molar mass. Like-named read-outs stand apart in the source and are kept apart here.

Tests used:
[1] = test system: K 562 cells, a cell line of chronic myologenous leukemia cells; assay: Suppression of replication of K 562 cells in vitro; type: cell-based; details: Homo sapiens, K562, read-out: concentration found to suppress replication of K 562 cells
Experimental: Since 1-(2-deoxy-2-fluoro-β-D-arabinofuranosyl)-5-iodocytosine was active against a virus which uses fetal thymidine kinase and since many tumor cells express high concentrations of fetal thymidine kinase, it was tested as a selective anti-tumor agent.

[2] = Solubility in saline; type: physicochemical; details: read-out: readily soluble at concentrations of
Experimental: (§1) The effective doses for 1-(2-deoxy-2-fluoro-β-D-arabinofuranosyl)-5-iodocytosine are given below. 1-(2-deoxy-2-fluoro-β-D-arabinofuranosyl)-5-iodocytosine is diluted in physiological saline, filter sterilized, and inoculated. This compound is readily soluble at concentrations of 25 mg/ml in saline. In mouse studies, the drug is inoculated by the intraperitoneal route.

[3] = test system: thymidine kinase negative strain of HSV-1 (HSV-1 TK^-); assay: Activity against thymidine kinase negative HSV-1; type: cell-based; details: Human alphaherpesvirus 1, read-out: not affected at concentrations of up to
[4] = test system: L51784; assay: Cytotoxicity, inhibition of growth of L51784 cells in vitro; type: cell-based; details: 96 h, read-out: Cytoxicity ID50
Experimental: (§2) *****Concentration required for 50% inhibition of growth of cells in
(§3) vitro after 96 hrs. incubation at 37° C.

[5] = test system: HSV-1 strain 2931; assay: In vivo activity in A/J mice infected with HSV-1 strain 2931; details: for mice surviving the 21 day experiment: starting 24 hours after inoculation
Experimental: as §1
1-(2-deoxy-2-fluoro-β-D-arabinofuranosyl)-5-iodocytosine was also shown to be active in vivo. A/J mice were inoculated with approximately 50 LD50 of HSV-1 strain 2931 intraperitoneally and then treated with 1-(2-deoxy-2-fluoro-β-D-arabinofuranosyl)-5-iodocytosine starting 24 hours later. 1-(2-deoxy-2-fluoro-β-D-arabinofuranosyl)-5-iodocytosinewas given at 10 and 1 mg/kg/da for 5 days. Untreated mice died 8 days after inoculation. Five of 10 mice treated with 10 mg/kg/day survived the 21 day experiment. Two of 10 treated with 1 mg/kg/da survival the 21 day experiment and the remainder died an average of 10 days after inoculation.

[6] = test system: Herpes Simplex Virus--Type 1 (HSV-1) strain 2931; assay: Capacity to suppress HSV-1 replication in monolayers of Vero cells; type: cell-based; details: 24 hr, read-out: Anti-viral Activity (% reduction of HSV1 titer)
Experimental: The capacity of 2'-fluoro-arabinosyl nucleosides (Formulas IV and V shown below) to suppress replication of Herpes Simplex virus-type 1 (HSV-1) in monolayers of Vero cells is shown in Table I.
Vero cell monolayers were infected with approximately 1 plaque forming unit (PFU) per cell of Herpes Simplex Virus--Type 1 (HSV-1) strain 2931 and incubated for 2 hr. Maintenance media containing the various concentrations of drugs were used to overlay the monolayers. Supernatant fluids were collected 24 hr. later and titered on Vero cell monolayers described in Lopez et al, Ann. N.Y. Acad. Sci., 284, 351 (1977). Percent inhibition over controls was calculated.

[7] = test system: Herpes Simplex Virus - type 2; assay: Inhibition of Herpes Simplex Virus type 2 replication (effective doses); type: cell-based; details: for EC50: read-out: ED50 (the source's name)
Experimental: (§4) Compounds of the invention show anti-viral and anti-tumor activity. 1-(2-Deoxy-2-fluoro-β-D-arabinofuranosyl)-5-iodocytosine inhibits Herpes Simplex Virus type 1 and type 2 replication. HFEM, Patton, 2931, and F-strain HSV-1 and 333 and G-strain HSV-2 are affected at concentrations of 1-(2-deoxy-2-fluoro-β-D-arabinofuranosyl)-5-iodocytosine 0.01 μM (approximately 0.004 μg/ml).
as §1

[8] = Toxicity to normal lymphoblastoid cells; type: cell-based; details: read-out: not toxic at concentrations of up to
Experimental: Since 1-(2-deoxy-2-fluoro-β-D-arabinofuranosyl)-5-iodocytosine was not toxic to normal lymphoblastoid cells at concentrations of up to 10 μM, the compound is believed to affect tumor cells at concentrations 1/100th those needed to suppress normal cell replication. Compounds of the invention can be used as a selective treatment for tumors expressing the fetal thymidine kinase which includes most tumors.

[9] = test system: Cytomegalovirus (CMV strain AD 169); assay: Effective dose against Cytomegalovirus strain AD-169; CMV plaque formation on WI-38 cells; type: cell-based; details: for minimal effective concentration: Human betaherpesvirus 5, CMV strain AD 169, WI-38 cells
Experimental: as §1

[10] = test system: Herpes Simplex Virus - type 1; assay: Inhibition of Herpes Simplex Virus type 1 replication (effective doses); type: cell-based; details: for EC50: read-out: ED50 (the source's name)
Experimental: as §4, §1

[11] = test system: P815; assay: Cytotoxicity, inhibition of growth of P815 cells in vitro; type: cell-based; details: Mus musculus, 96 hrs. incubation at 37° C., read-out: Cytoxicity ID50
Experimental: as §2, §3

## Nc1nc(=O)n([C@@H]2O[C@H](CO)[C@@H](O)[C@@H]2F)cc1I [IVe, 1-(2-deoxy-2-fluoro-β-D-arabinofuranosyl)-5-iodocytosine]
[1]
  minimal effective concentration: 0.04 µg/mL
[2]
  solubility: ≥ 25 mg/mL
[3]
  minimal effective concentration: > 10 µM
[4]
  IC50: 48 µg/mL (≈ 129 µM)
[5]; 1 mg/kg/da for 5 days, intraperitoneal, remainder of mice
  average time of death after inoculation (non-surviving mice): 10 days
[5]; 1 mg/kg/da for 5 days, intraperitoneal
  mice surviving the 21 day experiment: Two of 10
[5]; 10 mg/kg/day for 5 days, intraperitoneal
  mice surviving the 21 day experiment: Five of 10
[5]; 10 and 1 mg/kg/da for 5 days
  in vivo activity against HSV-1: active in vivo against HSV-1
[6]; Human alphaherpesvirus 1, 0.01 μg/ml
  activity at 0.01 µg/mL: 90 to 99%
[6]; Human alphaherpesvirus 1, 0.1 μg/ml
  activity at 0.1 µg/mL: 99 to 99.9%
[6]; Human alphaherpesvirus 1, 1.0 μg/ml
  activity at 1 µg/mL: 100%
[6]; Human alphaherpesvirus 1, 10 μg/ml
  activity at 10 µg/mL: 100%
[6]; Human alphaherpesvirus 1, 100 μg/ml
  activity at 100 µg/mL: 100%
[7]; Human alphaherpesvirus 2, HSV-2 strain 333
  EC50: 50 nM
[7]; Human alphaherpesvirus 2, HSV-2 strain G
  EC50: 10 nM
[7]; Human alphaherpesvirus 2, 333 and G-strain HSV-2, read-out: concentration at which HSV-2 strains are affected
  minimal effective concentration: 0.01 µM
[8]
  MNTC: > 10 µM
[9]; Human betaherpesvirus 5, AD169, WI-38, CMV strain AD-169, read-out: ED50 (the source's name)
  EC50: 1000 nM
[9]; read-out: concentration found to reduce CMV plaque formation
  minimal effective concentration: 1 µM
[9]; read-out: concentration found to reduce CMV plaque formation (mass units)
  minimal effective concentration: 0.4 µg/mL
[10]; Human alphaherpesvirus 1, HSV-1 strain 2931
  EC50: 7 nM
[10]; Human alphaherpesvirus 1, HSV-1 strain HFEM
  EC50: < 10 nM
[10]; Human alphaherpesvirus 1, HSV-1 strain McIntyre
  EC50: < 10 nM
[10]; Human alphaherpesvirus 1, HSV-1 strain Patton
  EC50: 10 nM
[10]; Human alphaherpesvirus 1, HFEM, Patton, 2931 and F-strain HSV-1, read-out: concentration at which HSV-1 strains are affected
  minimal effective concentration: 0.01 µM
[11]
  IC50: 14 µg/mL (≈ 37.7 µM)
